Experimental data reported in US20090312322A1, “Use of Oxindole Derivatives in the Treatment of Dementia Related Diseases, Alzheimer's Disease and Conditions Associated with Glycogen Synthase Kinase-3” (AstraZeneca AB, priority 2001, published 2009).

Row | SMILES | melting point
1 | COc1cc2c(C3C(=O)Nc4c(F)cccc43)ncnc2cc1OCCCN1CCOCC1.Cl.Cl (stereo not shown) | 211 to 214 °C
2 | CN1CCN(CCCOc2ccc3c(C4C(=O)Nc5ccc(C#N)cc54)ncnc3c2)CC1.Cl.Cl (stereo not shown) | 200 °C (dec.)
3 | CN(C)C(=O)c1ccc2c(c1)C(c1ncnc3cc(OCCCN4CCOCC4)ccc13)C(=O)N2 (stereo not shown) [Example 43, 3-[7-(3-Morpholin-4-yl-propoxy)quinazolin-4-yl]-2-oxo-2,3-dihydro-1H-indole-5-carboxylic acid dimethylamide] | 167.5 to 168.7 °C
4 | CNC(=O)c1ccc2c(c1)C(c1ncnc3cc(OCCCN4CCOCC4)ccc13)C(=O)N2 (stereo not shown) [Example 44, 3-[7-(3-Morpholin-4-yl-propoxy)-quinazolin-4-yl]-2-oxo-2,3-dihydro-1H-indole-5-carboxylic acid methylamide] | 195 to 198 °C
